# Measured values from patent US7863265B2, “2-azetidinone derivatives and their use as cholesterol absorption inhibitors for the treatment of hyperlipidaemia” (AstraZeneca AB, priority 2005, dated 2011).
# Experiments:
# [1] = tested on: 14C-cholesterol absorption; experiment: In vivo testing of cholesterol absorption inhibitors (A); conditions: 0.2 μmol/kg by gavage, procedure A, C57BL/6 female mice
# Procedure: In Vivo Testing of Cholesterol Absorption Inhibitors (A)
# C57BL/6 female mice were maintained on regular chow diet and housed in individual cages to collect faeces. Mice were fasted for 3 hours and then gavaged with vehicle or compound. Half an hour later the mice were gavaged with radiolabelled cholesterol. Six hours after the ^14C-cholesterol gavage blood samples were taken via the tail and plasma prepared to determine how much cholesterol were absorbed. 24 hours after the gavage of ^14C-cholesterol the mice were bled and plasma were prepared for analysis. Faeces were collected for 24 hours to assess absorption efficiency.
# [2] = Absorption in a Caco-2 cells model; format: in vitro ADME; conditions: human
# Procedure: (§1) Absorption of the compounds of formula (I) was tested in a Caco-2 cells model (Gastroenterology 1989, 96, 736): […]
# Caco-2 cells = experiment: Absorption in a Caco-2 cells model; format: in vitro ADME
# Procedure: as §1
Papp [2],Caco value (Caco-2 cells),SMILES,inhibition of 14C-cholesterol absorption [1]
,,"CC(C)(c1ccccc1)[C@@H](NC(=O)CNC(=O)COc1ccc([C@@H]2[C@@H](SCC(O)c3ccc(F)cc3)C(=O)N2c2ccc(F)cc2)cc1)C(=O)O (single isomer, unassigned) [Example 5, N-{[4-((2R,3R)-1-(4-fluorophenyl)-3-{[(2R or S)-2-(4-fluorophenyl)-2-hydroxyethyl]thio}-4-oxoazetidin-2-yl)phenoxy]acetyl}glycyl-β,β-dimethyl-D-phenylalanine]",78%
0.04 ×10⁻⁶ cm/s,,"O=C(COc1ccc([C@@H]2[C@@H](SCC(O)c3ccc(F)cc3)C(=O)N2c2ccc(F)cc2)cc1)NCC(=O)N[C@H](CC1CCCCC1)C(=O)O (single isomer, unassigned) [Example 4, N-{[4-((2R,3R)-1-(4-fluorophenyl)-3-{[(2R or S)-2-(4-fluorophenyl)-2-hydroxyethyl]thio}-4-oxoazetidin-2-yl)phenoxy]acetyl}glycyl-3-cyclohexyl-D-alanine]",75%
,0.02 ×10⁻⁶ cm/s,"CC(C)(C)[C@@H](NC(=O)CNC(=O)COc1ccc([C@@H]2[C@@H](SC[C@H](O)c3ccc(F)cc3)C(=O)N2c2ccc(F)cc2)cc1)C(=O)O [Example 3, N-{[4-((2R,3R)-1-(4-fluorophenyl)-3-{[(2R or 6)-2-(4-fluorophenyl)-2-hydroxyethyl]thio}-4-oxoazetidin-2-yl)phenoxy]acetyl}glycyl-3-methyl-D-valine]",73%
